The values that follow come from patent US9340590B2 (priority 2011, dated 2016).

SMILES strings stand for the structures. Positions of bridges follow the written chain, without caps; N, C: chain ends. Non-standard residues stand in square brackets, D forms with d. Residues, ends and D or L forms follow the SMILES beside them. *: point of attachment. DOTA = O=C(O)CN1CCN(CC(=O)O)CCN(CC(=O)*)CCN(CC(=O)O)CC1; Pra = C#CC[C@H](N)C(=O)O; Abu = CC[C@H](N)C(=O)O

One test addresses hNav1.7 (Homo sapiens, UniProt Q15858). As to the kind of experiment: cell-based. Conditions: Nav1.7 Use IC50.
A further test deals with hNav1.5 (Homo sapiens, UniProt Q14524). Description: cell-based.
hNav1.5, sequence (Q14524 whole entry, looked up): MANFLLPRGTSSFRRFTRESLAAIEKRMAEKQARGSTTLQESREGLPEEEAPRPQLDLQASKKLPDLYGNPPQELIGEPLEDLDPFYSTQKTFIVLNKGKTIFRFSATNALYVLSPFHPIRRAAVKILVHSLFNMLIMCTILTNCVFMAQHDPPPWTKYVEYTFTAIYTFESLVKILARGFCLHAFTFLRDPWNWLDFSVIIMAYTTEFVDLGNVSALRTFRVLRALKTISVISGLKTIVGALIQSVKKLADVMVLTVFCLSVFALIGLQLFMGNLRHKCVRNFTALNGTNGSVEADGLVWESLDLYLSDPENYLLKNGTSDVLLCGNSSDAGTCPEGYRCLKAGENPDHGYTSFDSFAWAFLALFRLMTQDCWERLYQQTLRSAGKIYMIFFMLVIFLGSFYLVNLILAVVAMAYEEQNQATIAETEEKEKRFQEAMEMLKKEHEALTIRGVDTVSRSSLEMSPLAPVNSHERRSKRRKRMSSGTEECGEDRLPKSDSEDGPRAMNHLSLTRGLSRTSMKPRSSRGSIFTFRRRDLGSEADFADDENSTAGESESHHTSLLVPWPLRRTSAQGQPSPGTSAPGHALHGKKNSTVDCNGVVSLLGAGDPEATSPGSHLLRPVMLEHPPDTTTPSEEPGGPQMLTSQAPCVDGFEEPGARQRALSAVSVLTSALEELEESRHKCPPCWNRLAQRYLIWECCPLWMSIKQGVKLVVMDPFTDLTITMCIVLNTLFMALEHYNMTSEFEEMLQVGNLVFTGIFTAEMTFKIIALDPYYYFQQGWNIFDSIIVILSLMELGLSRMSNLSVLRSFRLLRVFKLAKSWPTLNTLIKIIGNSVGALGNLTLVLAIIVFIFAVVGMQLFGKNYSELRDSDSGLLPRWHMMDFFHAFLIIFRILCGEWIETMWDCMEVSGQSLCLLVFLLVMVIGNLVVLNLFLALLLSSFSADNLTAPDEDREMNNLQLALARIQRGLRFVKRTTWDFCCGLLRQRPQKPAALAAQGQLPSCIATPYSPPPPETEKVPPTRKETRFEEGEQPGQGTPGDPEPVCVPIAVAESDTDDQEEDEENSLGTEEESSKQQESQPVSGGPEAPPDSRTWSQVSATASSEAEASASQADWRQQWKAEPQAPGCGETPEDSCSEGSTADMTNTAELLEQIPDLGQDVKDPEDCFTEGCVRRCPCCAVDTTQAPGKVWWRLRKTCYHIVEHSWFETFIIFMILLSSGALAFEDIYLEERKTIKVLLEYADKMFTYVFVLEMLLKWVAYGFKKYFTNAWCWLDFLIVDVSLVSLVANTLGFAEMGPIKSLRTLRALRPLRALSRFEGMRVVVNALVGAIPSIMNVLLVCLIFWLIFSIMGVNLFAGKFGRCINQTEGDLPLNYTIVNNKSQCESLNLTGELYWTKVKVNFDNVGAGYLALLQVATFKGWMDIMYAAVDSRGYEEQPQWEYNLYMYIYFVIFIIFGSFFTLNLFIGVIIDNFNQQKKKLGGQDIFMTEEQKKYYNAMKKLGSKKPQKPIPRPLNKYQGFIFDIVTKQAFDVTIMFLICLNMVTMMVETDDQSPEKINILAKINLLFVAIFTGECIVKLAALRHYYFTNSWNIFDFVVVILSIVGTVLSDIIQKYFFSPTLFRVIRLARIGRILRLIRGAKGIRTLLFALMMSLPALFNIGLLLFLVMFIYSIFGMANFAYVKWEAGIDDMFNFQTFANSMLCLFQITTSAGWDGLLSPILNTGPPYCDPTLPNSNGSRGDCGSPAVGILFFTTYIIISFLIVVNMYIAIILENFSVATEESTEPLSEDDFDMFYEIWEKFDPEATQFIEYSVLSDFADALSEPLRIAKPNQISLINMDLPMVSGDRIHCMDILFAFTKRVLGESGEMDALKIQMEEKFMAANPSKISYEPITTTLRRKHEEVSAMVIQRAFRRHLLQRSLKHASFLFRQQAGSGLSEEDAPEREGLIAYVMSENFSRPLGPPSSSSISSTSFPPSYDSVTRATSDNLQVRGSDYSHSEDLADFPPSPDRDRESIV

hNav1.7, sequence (Q15858 whole entry, looked up): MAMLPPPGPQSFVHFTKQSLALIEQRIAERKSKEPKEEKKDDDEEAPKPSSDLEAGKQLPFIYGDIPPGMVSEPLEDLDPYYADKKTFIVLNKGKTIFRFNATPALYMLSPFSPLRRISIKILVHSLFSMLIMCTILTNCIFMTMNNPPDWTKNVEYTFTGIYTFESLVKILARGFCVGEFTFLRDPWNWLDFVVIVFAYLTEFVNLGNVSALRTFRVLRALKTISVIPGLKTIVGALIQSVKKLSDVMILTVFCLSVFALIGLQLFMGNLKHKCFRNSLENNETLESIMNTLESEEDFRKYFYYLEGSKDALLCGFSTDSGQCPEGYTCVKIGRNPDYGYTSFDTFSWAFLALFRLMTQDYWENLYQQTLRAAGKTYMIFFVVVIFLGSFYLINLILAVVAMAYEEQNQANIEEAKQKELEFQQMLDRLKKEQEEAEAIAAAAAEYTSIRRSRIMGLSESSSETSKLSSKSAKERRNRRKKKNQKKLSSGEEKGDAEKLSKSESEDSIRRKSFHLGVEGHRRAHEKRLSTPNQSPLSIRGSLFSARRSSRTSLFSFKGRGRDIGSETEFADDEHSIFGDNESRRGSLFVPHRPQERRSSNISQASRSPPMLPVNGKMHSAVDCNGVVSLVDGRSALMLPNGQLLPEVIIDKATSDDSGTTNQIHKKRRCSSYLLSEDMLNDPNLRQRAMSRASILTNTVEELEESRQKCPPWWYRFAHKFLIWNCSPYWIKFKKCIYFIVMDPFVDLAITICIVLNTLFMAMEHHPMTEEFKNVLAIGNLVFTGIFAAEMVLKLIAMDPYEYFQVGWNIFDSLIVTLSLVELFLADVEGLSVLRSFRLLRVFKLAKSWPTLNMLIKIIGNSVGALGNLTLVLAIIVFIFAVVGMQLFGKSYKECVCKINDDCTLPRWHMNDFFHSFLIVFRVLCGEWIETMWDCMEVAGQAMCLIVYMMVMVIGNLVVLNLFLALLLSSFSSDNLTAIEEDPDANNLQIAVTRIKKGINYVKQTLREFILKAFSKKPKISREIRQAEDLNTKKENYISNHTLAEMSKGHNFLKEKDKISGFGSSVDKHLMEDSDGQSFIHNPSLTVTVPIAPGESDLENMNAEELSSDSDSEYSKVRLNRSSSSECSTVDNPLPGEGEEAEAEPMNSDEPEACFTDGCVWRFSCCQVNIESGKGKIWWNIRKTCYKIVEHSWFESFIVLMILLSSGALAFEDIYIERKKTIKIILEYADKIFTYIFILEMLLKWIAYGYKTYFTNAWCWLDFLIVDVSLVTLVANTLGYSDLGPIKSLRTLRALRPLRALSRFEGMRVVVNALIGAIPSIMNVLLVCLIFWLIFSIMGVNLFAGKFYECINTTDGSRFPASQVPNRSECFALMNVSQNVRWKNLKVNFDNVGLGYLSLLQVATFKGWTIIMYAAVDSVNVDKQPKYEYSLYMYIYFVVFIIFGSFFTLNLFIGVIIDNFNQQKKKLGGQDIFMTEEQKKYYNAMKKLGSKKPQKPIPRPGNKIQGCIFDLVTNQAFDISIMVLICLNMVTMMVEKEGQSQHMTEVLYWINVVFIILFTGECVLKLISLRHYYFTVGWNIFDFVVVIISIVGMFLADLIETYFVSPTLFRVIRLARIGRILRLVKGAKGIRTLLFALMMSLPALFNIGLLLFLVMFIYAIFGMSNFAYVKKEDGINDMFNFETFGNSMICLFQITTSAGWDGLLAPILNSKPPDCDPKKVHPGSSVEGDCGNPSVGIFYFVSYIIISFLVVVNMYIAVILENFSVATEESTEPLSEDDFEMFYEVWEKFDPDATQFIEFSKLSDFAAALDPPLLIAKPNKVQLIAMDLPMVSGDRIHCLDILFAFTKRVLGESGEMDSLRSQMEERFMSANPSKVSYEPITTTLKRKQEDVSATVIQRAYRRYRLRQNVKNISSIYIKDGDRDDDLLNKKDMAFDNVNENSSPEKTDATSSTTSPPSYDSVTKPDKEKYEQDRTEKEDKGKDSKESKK

Broadly, the IC50 is the concentration that gives 50% inhibition. Lower therefore signals higher potency. Take `CC[C@H](C)[C@@H]1NC(=O)[C@@H]2CSSC[C@@H]3NC(=O)[C@H](C(C)C)NC(=O)[C@H](CC(C)C)NC(=O)[C@H](CC(N)=O)NC(=O)[C@@H]4CCCN4C(=O)[C@H](CCCNC(=N)N)NC(=O)[C@H](CSSC[C@H](NC(=O)[C@@H](N)CC(=O)O)C(=O)N[C@@H](CC(C)C)C(=O)NCC(=O)N[C@@H](C)C(=O)N[C@@H](Cc4ccccc4)C(=O)N[C@@H](CCCNC(=N)N)C(=O)N[C@@H](CCCCN)C(=O)N2)NC(=O)[C@H](CSSC[C@@H](C(=O)N[C@@H](CCCCN)C(=O)N[C@@H](Cc2ccc(O)cc2)C(=O)N[C@H](C(=O)N[C@@H](Cc2ccccc2)C(N)=O)C(C)C)NC(=O)[C@H](Cc2c[nH]c4ccccc24)NC(=O)[C@H](CCCNC(=N)N)NC(=O)[C@H](Cc2c[nH]cn2)NC(=O)[C@H](CC(C)C)NC(=O)[C@H](CCCNC(=N)N)NC(=O)[C@H](CO)NC3=O)NC(=O)[C@H](CCCCN)NC(=O)[C@H](CC(=O)O)NC(=O)[C@H](Cc2cn(CCOCCOCCOCCOCCOCCOCCOCCOCCOCCOCCOCCNC(=O)CSCCO)nn2)NC(=O)[C@H](CC(=O)O)NC(=O)[C@@H]2CCCN2C1=O`: the IC50 is 35 nM against hNav1.7 and more than 10 µM against hNav1.5.
The corresponding values for `CC[C@@H]1NC(=O)[C@H](CC(=O)O)NC(=O)[C@@H]2CCCN2C(=O)[C@H](CCC(=O)O)NC(=O)[C@@H]2CSSC[C@@H]3NC(=O)[C@H](C(C)C)NC(=O)[C@H](CC(C)C)NC(=O)[C@H](CC(N)=O)NC(=O)[C@@H]4CCCN4C(=O)[C@H](CCCNC(=N)N)NC(=O)[C@H](CSSC[C@H](NC(=O)[C@@H](N)CC(=O)O)C(=O)N[C@@H](CC(C)C)C(=O)NCC(=O)N[C@@H](C)C(=O)N[C@@H](Cc4ccccc4)C(=O)N[C@@H](CCCNC(=N)N)C(=O)N[C@@H](CCCCN)C(=O)N2)NC(=O)[C@H](CSSC[C@@H](C(=O)N[C@@H](CCCCN)C(=O)N[C@@H](Cc2ccc(O)cc2)C(=O)N[C@H](C(=O)N[C@@H](Cc2ccccc2)C(N)=O)C(C)C)NC(=O)[C@H](Cc2c[nH]c4ccccc24)NC(=O)[C@H](CCCNC(=N)N)NC(=O)[C@H](Cc2c[nH]cn2)NC(=O)[C@H](CC(C)C)NC(=O)[C@H](CCCNC(=N)N)NC(=O)[C@H](CO)NC3=O)NC(=O)[C@H](CCCCN)NC(=O)[C@H](CC(=O)O)NC1=O` (H-DCLGAFRKCEPD[Abu]DKCCRPNLVCSRLHRWCKYVF-NH2; disulfide 2-17, 9-23, 16-30) are 3.5 nM and more than 10 µM.
Regarding `C#CC[C@@H]1NC(=O)[C@H](CC(=O)O)NC(=O)[C@@H]2CCCN2C(=O)[C@H](CCC(=O)O)NC(=O)[C@@H]2CSSC[C@@H]3NC(=O)[C@H](C(C)C)NC(=O)[C@H](CC(C)C)NC(=O)[C@H](CC(N)=O)NC(=O)[C@@H]4CCCN4C(=O)[C@H](CCCNC(=N)N)NC(=O)[C@H](CSSC[C@H](NC(=O)[C@@H](N)CC(=O)O)C(=O)N[C@@H](CC(C)C)C(=O)NCC(=O)N[C@@H](C)C(=O)N[C@@H](Cc4ccccc4)C(=O)N[C@@H](CCCNC(=N)N)C(=O)N[C@@H](CCCCN)C(=O)N2)NC(=O)[C@H](CSSC[C@@H](C(=O)N[C@@H](CCCCN)C(=O)N[C@@H](Cc2ccc(O)cc2)C(=O)N[C@H](C(=O)N[C@@H](Cc2ccccc2)C(N)=O)C(C)C)NC(=O)[C@H](Cc2c[nH]c4ccccc24)NC(=O)[C@H](CCCNC(=N)N)NC(=O)[C@H](Cc2c[nH]cn2)NC(=O)[C@H](CC(C)C)NC(=O)[C@H](CCCNC(=N)N)NC(=O)[C@H](CO)NC3=O)NC(=O)[C@H](CCCCN)NC(=O)[C@H](CC(=O)O)NC1=O` (H-DCLGAFRKCEPD[Pra]DKCCRPNLVCSRLHRWCKYVF-NH2; disulfide 2-17, 9-23, 16-30), the concentration for half-maximal inhibition (IC50) on hNav1.7 stood at 12 nM; against hNav1.5, 15.3 µM.
The like results for `CC[C@H](C)[C@@H]1NC(=O)[C@@H]2CSSC[C@@H]3NC(=O)[C@H](C(C)C)NC(=O)[C@H](CC(C)C)NC(=O)[C@H](CC(N)=O)NC(=O)[C@@H]4CCCN4C(=O)[C@H](CCCNC(=N)N)NC(=O)[C@H](CSSC[C@H](NC(=O)[C@@H](N)CC(=O)O)C(=O)N[C@@H](CC(C)C)C(=O)NCC(=O)N[C@@H](C)C(=O)N[C@@H](Cc4ccccc4)C(=O)N[C@@H](CCCNC(=N)N)C(=O)N[C@@H](CCCCN)C(=O)N2)NC(=O)[C@H](CSSC[C@@H](C(=O)N[C@@H](CCCCN)C(=O)N[C@@H](Cc2ccc(O)cc2)C(=O)N[C@H](C(=O)N[C@@H](Cc2ccccc2)C(N)=O)C(C)C)NC(=O)[C@H](Cc2c[nH]c4ccccc24)NC(=O)[C@H](CCCNC(=N)N)NC(=O)[C@H](Cc2c[nH]cn2)NC(=O)[C@H](CC(C)C)NC(=O)[C@H](CCCNC(=N)N)NC(=O)[C@H](CO)NC3=O)NC(=O)[C@H](CCCCN)NC(=O)[C@H](CC(=O)O)NC(=O)[C@H](CCCCNC(=O)CN2CCN(CC(=O)O)CCN(CC(=O)O)CCN(CC(=O)O)CC2)NC(=O)[C@H](CC(=O)O)NC(=O)[C@@H]2CCCN2C1=O` (H-DCLGAFRKCIPDK(DOTA)DKCCRPNLVCSRLHRWCKYVF-NH2; disulfide 2-17, 9-23, 16-30) were, in that order, 27.5 nM and more than 10 µM.
The corresponding values for `CC[C@@H]1NC(=O)[C@H](CC(=O)O)NC(=O)[C@@H]2CCCN2C(=O)[C@H]([C@@H](C)CC)NC(=O)[C@@H]2CSSC[C@@H]3NC(=O)[C@H](C(C)C)NC(=O)[C@H](CC(C)C)NC(=O)[C@H](CC(N)=O)NC(=O)[C@@H]4CCCN4C(=O)[C@H](CCCNC(=N)N)NC(=O)[C@H](CSSC[C@H](NC(=O)[C@@H](N)CC(=O)O)C(=O)N[C@@H](CC(C)C)C(=O)NCC(=O)N[C@@H](C)C(=O)N[C@@H](Cc4ccccc4)C(=O)N[C@@H](CCCNC(=N)N)C(=O)N[C@@H](CCCCN)C(=O)N2)NC(=O)[C@H](CSSC[C@@H](C(=O)N[C@@H](CCCCN)C(=O)N[C@@H](Cc2ccc(O)cc2)C(=O)N[C@H](C(=O)N[C@@H](Cc2ccccc2)C(N)=O)C(C)C)NC(=O)[C@H](Cc2c[nH]c4ccccc24)NC(=O)[C@H](CCCNC(=N)N)NC(=O)[C@H](Cc2c[nH]cn2)NC(=O)[C@H](CC(C)C)NC(=O)[C@H](CCCNC(=N)N)NC(=O)[C@H](CO)NC3=O)NC(=O)[C@H](CCCCN)NC(=O)[C@H](CC(=O)O)NC1=O` (H-DCLGAFRKCIPD[Abu]DKCCRPNLVCSRLHRWCKYVF-NH2; disulfide 2-17, 9-23, 16-30) are 4.7 nM and more than 10 µM.
The like results for `C#CC[C@@H]1NC(=O)[C@H](CC(=O)O)NC(=O)[C@@H]2CCCN2C(=O)[C@H]([C@@H](C)CC)NC(=O)[C@@H]2CSSC[C@@H]3NC(=O)[C@H](C(C)C)NC(=O)[C@H](CC(C)C)NC(=O)[C@H](CC(N)=O)NC(=O)[C@@H]4CCCN4C(=O)[C@H](CCCNC(=N)N)NC(=O)[C@H](CSSC[C@H](NC(=O)[C@@H](N)CC(=O)O)C(=O)N[C@@H](CC(C)C)C(=O)NCC(=O)N[C@@H](C)C(=O)N[C@@H](Cc4ccccc4)C(=O)N[C@@H](CCCNC(=N)N)C(=O)N[C@@H](CCCCN)C(=O)N2)NC(=O)[C@H](CSSC[C@@H](C(=O)N[C@@H](CCCCN)C(=O)N[C@@H](Cc2ccc(O)cc2)C(=O)N[C@H](C(=O)N[C@@H](Cc2ccccc2)C(N)=O)C(C)C)NC(=O)[C@H](Cc2c[nH]c4ccccc24)NC(=O)[C@H](CCCNC(=N)N)NC(=O)[C@H](Cc2c[nH]cn2)NC(=O)[C@H](CC(C)C)NC(=O)[C@H](CCCNC(=N)N)NC(=O)[C@H](CO)NC3=O)NC(=O)[C@H](CCCCN)NC(=O)[C@H](CC(=O)O)NC1=O` (H-DCLGAFRKCIPD[Pra]DKCCRPNLVCSRLHRWCKYVF-NH2; disulfide 2-17, 9-23, 16-30) were, in that order, 3 nM and more than 10 µM.
`CC[C@H](C)[C@@H]1NC(=O)[C@@H]2CSSC[C@@H]3NC(=O)[C@H](C(C)C)NC(=O)[C@H](CC(C)C)NC(=O)[C@H](CC(N)=O)NC(=O)[C@@H]4CCCN4C(=O)[C@H](CCCNC(=N)N)NC(=O)[C@H](CSSC[C@H](NC(=O)[C@@H](N)CC(=O)O)C(=O)N[C@@H](CC(C)C)C(=O)NCC(=O)N[C@@H](C)C(=O)N[C@@H](CC(C)C)C(=O)N[C@@H](CCCNC(=N)N)C(=O)N[C@@H](CCCCN)C(=O)N2)NC(=O)[C@H](CSSC[C@@H](C(=O)N[C@@H](CCCCN)C(=O)N[C@@H](Cc2ccc(O)cc2)C(=O)N[C@H](C(=O)N[C@@H](Cc2ccccc2)C(=O)N[C@@H](Cc2c[nH]c4ccccc24)C(=O)O)C(C)C)NC(=O)[C@H](Cc2c[nH]c4ccccc24)NC(=O)[C@H](CCCNC(=N)N)NC(=O)[C@H](Cc2c[nH]cn2)NC(=O)[C@H]([C@@H](C)O)NC(=O)[C@H](CCCNC(=N)N)NC(=O)[C@H](CO)NC3=O)NC(=O)[C@H](CCCCN)NC(=O)[C@H](CC(=O)O)NC(=O)[C@H](CC(N)=O)NC(=O)[C@H](CC(=O)O)NC(=O)[C@@H]2CCCN2C1=O` (H-DCLGALRKCIPDNDKCCRPNLVCSRTHRWCKYVFW-OH; disulfide 2-17, 9-23, 16-30): the IC50 is 50 nM against hNav1.7 and more than 10 µM on hNav1.5.
The like results for `CC[C@@H]1NC(=O)[C@H](CC(=O)O)NC(=O)[C@@H]2CCCN2C(=O)[C@H]([C@@H](C)CC)NC(=O)[C@@H]2CSSC[C@@H]3NC(=O)[C@H](C(C)C)NC(=O)[C@H](CC(C)C)NC(=O)[C@H](CC(N)=O)NC(=O)[C@@H]4CCCN4C(=O)[C@H](CCCNC(=N)N)NC(=O)[C@H](CSSC[C@H](NC(=O)[C@@H](N)CC(=O)O)C(=O)N[C@@H](CC(C)C)C(=O)NCC(=O)N[C@@H](C)C(=O)N[C@@H](CC(C)C)C(=O)N[C@@H](CCCNC(=N)N)C(=O)N[C@@H](CCCCN)C(=O)N2)NC(=O)[C@H](CSSC[C@@H](C(=O)N[C@@H](CCCCN)C(=O)N[C@@H](Cc2ccc(O)cc2)C(=O)N[C@H](C(=O)N[C@@H](Cc2ccccc2)C(N)=O)C(C)C)NC(=O)[C@H](Cc2c[nH]c4ccccc24)NC(=O)[C@H](CCCNC(=N)N)NC(=O)[C@H](Cc2c[nH]cn2)NC(=O)[C@H](CC(C)C)NC(=O)[C@H](CCCNC(=N)N)NC(=O)[C@H](CO)NC3=O)NC(=O)[C@H](CCCCN)NC(=O)[C@H](CC(=O)O)NC1=O` (H-DCLGALRKCIPD[Abu]DKCCRPNLVCSRLHRWCKYVF-NH2; disulfide 2-17, 9-23, 16-30) were, in that order, 8.7 nM and more than 10 µM.
